According to US5250305A, “Process for enzymatic ultrafiltration of deamidated protein” (The United States of America as represented by the …, priority 1990, dated 1993):
Peptide text beside a SMILES is read from it.

Tested on: PGase
Assay: Km and Vmax of PGase substrates (Lineweaver-Burk plot)
Assay type: biochemical, Bacillus circulans
Conditions: 0.05 M phosphate buffer, pH 7.0, 30° C.
Procedure: A 1 mL enzyme preparation containing 0.25-0.50 mg protein was added to 2-5 mL substrate in 0.05 M phosphate buffer, pH 7.0. The substrate concentrations were 0.2% CBZ-L-Gln, 0.2% BOC-Gln-Pro and 0.2% peptone type IV. Peptone solutions (5%) were ultrafiltered prior to use, through the 30 kd spiral membrane incubated at 30° C. for 30 or 60 min, then the ammonia constant of the samples was determined with a model 95-10 ammonia electrode (Orion Research Inc., Cambridge, Mass.).
The effects of the molarity and pH of the sodium phosphate buffer on PGase activity were studied. The progress of the PGase deamidation reaction of Peptone IV in 0.05 M phosphate buffer, pH 7.0, as a function of time was measured at 25° C. and 30° C.

Compound	Km [µM]	Vmax [µmol/min/mg]
CC(C)(C)OC(=O)N[C@@H](CCC(N)=O)C(=O)N1CCC[C@H]1C(=O)O [BOC-glutamine-proline, t-BOC-L-glutaminyl-L-proline] (HELM PEPTIDE1{[CC(C)(C)OC(=O)[*:2]].Q.P}$$$$V2.0)	143	0.52
NC(=O)CC[C@H](NC(=O)OCc1ccccc1)C(=O)O [CBZ-glutamine, CBZ-L-glutamine]	67	
